Assay results published in US11771637B2, “Skin care composition and method of using the same” (The Procter & Gamble Company, priority 2021, dated 2023).
“And” between values parts separate entries of the source, which are not always exact repeats. Identical values can stand only once. No end group written: not given here. *: point of attachment. Palmitoyl = CCCCCCCCCCCCCCCC(=O)*

Test system: Antioxidant Response Element (ARE)
Test: ARE Assay (ARE-32 luciferase reporter cell line)
Format: cell-based
Text: This method provides a way to quantitate ARE activation using the ARE-32 reporter cell line available from CXR Biosciences. The ARE-32 cell line is a stable MCF7 cell line containing pGL8x-ARE (8 copies of the rat GST ARE linked to the luciferase gene) and pCDNA3.1, which contains the neomycin selectable marker. A detailed description of the ARE-32 cell line and its development and use can be found in “Generation of a Stable Antioxidant Response Element-Driven Reporter Gene Cell Line and Its Use to Show Redox-Dependent Activation of Nrf2 by Cancer Chemotherapeutic Agents.” Cancer Res 2006; 66(22): 10983-94. A general schematic for how an ARE reporter assay operates to identify agents that promote transcription off the ARE is described in U.S. Publication No. 2011/0262570.
The ARE Assay uses expanded and cryopreserved passaged stocks. The cells are expanded over 4-5 days in culture flasks and passaged every 3-4 days, when cells are approximately 80% confluent. When cells are >70% confluent or ready to seed into 96 well plates, the cells are trypsinized, seeded and grown in 96-well plates. After growing for 1 day in 96-well plates, the media is replaced with fresh treatment media (phenol red free, no FBS) and cells are treated with compounds and incubated overnight (24 hours). Post treatment, cells are rinsed with 1×PBS, lysed and receive the luciferase kit reagent and luminescence is measured.
Frozen AREC32 cells (frozen in 90% FBS and 10% DMSO) are quickly thawed and placed in a 50 ml conical tube with 25 ml plating media. Centrifuge at 1500-2000 RPM for 5 minutes. Remove media without disturbing cell pellet. Re-suspend cells in 12 ml media and add to T-75 tissue culture flask. Cells should be at >80% confluency in 4-5 days and can be split 1:3 into T-150 flasks to grow cells for seeding plates if more cells are needed.
Cells are maintained and plated in 96-well plates with plating media. Subculture (passage cells) every 3-4 days or when ˜75-80% confluent. To passage cells, aspirate media from flask and add 6 ml 0.25% trypsin. Tilt flask in all directions to distribute the trypsin over the bottom of the flask and place in incubator. After 2-3 minutes observe cells under microscope to see if detached. If cells have not detached completely place in incubator for an additional 2-3 minutes. Once detached, add 6 ml maintenance media to neutralize trypsin and pipet into centrifuge tube. Centrifuge at 1200 RPM for 5 minutes. Remove media without disturbing cell pellet. Re-suspend pellet in 12 ml maintenance media and add to flask. If splitting or detaching cells from a T-150 flask double all volumes and follow same procedures.
Aspirate media from flask and add appropriate volume of 0.25% trypsin depending on size of flask (6 ml for T-75 and 12 ml for T-150 flask). Swirl flask to distribute trypsin on bottom of flask and return to incubator for 2-3 minutes. Observe cells under microscope. If cells have not detached completely place in incubator for an additional 2-3 minutes. Once cells are detached add DMEM equal to the volume of trypsin, mix gently and place in centrifuge tube. Centrifuge at […] for 5 minutes. Aspirate media without disturbing cell pellet. Re-suspend pellet in 10 ml DMEM. Dilute the cells 1:5 using 50 μl cells+200 μl DMEM. Use 20 μl of this dilution and 20 μl 0.4% trypan blue. Mix and add 10 μl/chamber to disposable hemocytometer and insert into Countess II Instrument. Non-viable cells will be blue, viable cells will be unstained. Cell seeding density may vary from ˜10,000 cells/well or more depending on cell passage growth. Cell density should be approx. 70-80% on day of treatment/dosing. […] Media must be free of phenol red.
Tert-Butylhydroquinone (tBHQ) (Aldrich, Cat #11,294-1). Prepare 100 mM stock (1M=166.21 mg/ml; 100 mM=16.62 mg/ml). Dilute to 750 μM (1:133) using 30 μl of 100 mM tBHQ and […] treatment media. 2 μl of positive control should yield a final concentration of 7.5 μM in the test well. […]

Question: Which results are given for `NC(=O)c1cccnc1` [N, niacinamide, reference compound]?
Answer: Average Net Luminescence N (N 1 ppm alone): 8; Average Net Luminescence N (N 10 ppm alone): 12; Average Net Luminescence N (N 50 ppm alone): 45; Average Net Luminescence N (N 500 ppm alone): 53; Average Net Luminescence N (Table 3, N 500 ppm alone): 45

Question: How did the “Average Net Luminescence Ac-PPYL” value (Ac-PPYL 0.05 ppm alone) turn out when acetyl tetrapeptide-11 (Ac-PPYL) was run?
Answer: Its value is 12 and 19.4 and 20.

Question: And the “Average Net Luminescence Ac-PPYL” value (Ac-PPYL 0.1 ppm alone)?
Answer: Its value is 22 and 15.7.

Question: What about the “Average Net Luminescence Ac-PPYL” value (Ac-PPYL 0.5 ppm alone) of the same compound?
Answer: The value was 14.7 and 26.

Question: What about the “Average Net Luminescence Ac-PPYL” value (Ac-PPYL 1 ppm alone) of the same compound?
Answer: Its value is 56 and 51.

Question: And the “Average Net Luminescence Ac-PPYL” value (Ac-PPYL 2 ppm alone)?
Answer: The value was 64 and 61.

Question: And the “Average Net Luminescence Ac-PPYL” value (Table 3, Ac-ppyl 2 ppm alone)?
Answer: Its value is 57.

Question: For “palmitoyl pentapeptide-4 (Palmitoyl-KTTKS) [Pal-KTTKS]”, which “Average Net Luminescence Pal-kttks” value (Pal-KTTKS 1 ppm alone) is on record?
Answer: Its value is 24.3.

Question: And the “Average Net Luminescence Pal-kttks” value (Table 3, Pal-kttks 1 ppm alone)?
Answer: The value was 21.
